What was measured:
[1] = test system: myosin IIB; assay: Western blot analysis of total nonmuscle myosin IIB level; assay type: cell-based, human; conditions: Western blot; ML-7 40 μM 16 h
Procedure: ML-7, blebbistatin, cytochalasin B, puromycin, and cycloheximide were purchased from Sigma. ML-7 was used at 40 μM, blebbistatin was used at 100 μM, and cytochalasin B was used at 20 μM. Cells were incubated with the drugs for 16 h before analysis. Puromycin (200 μg/ml) and cycloheximide (100 μg/ml) were added to the cells for 2 h. Human lung fibroblasts have been described previously.16 Scleroderma fibroblasts were purchased from the European Collection of Cell Cultures (cell line BM0070) and derived from the skin of a scleroderma patient. MEFs were derived from knock-in mice in which the 5′SL of the collagen α1(I) gene has been mutated (Parsons et al., submitted). Several independent cell isolates were used throughout the study. All cells were cultured in Dulbecco's modified Eagle's medium supplemented with 10% fetal bovine serum for up to 10 passages. […] [^32P]dCTP was included in the PCR step to label the products, which were resolved on sequencing gels, as described previously.^8,31,49,50 When RNA from polysomal fractions was analyzed, an equal aliquot of each fraction was used. […]
Protein concentration was estimated by the Bradford assay, with bovine serum albumin as standard.^51 Western blot analyses of cellular proteins were performed using 50 μg of protein. […] The medium was collected, and an aliquot was analyzed directly by Western blot analysis. […]

[2] = test system: calnexin; assay: Immunostaining for the ER marker protein calnexin; assay type: cell-based; conditions: ML-7-treated cells vs control cells
Procedure: Protein concentration was estimated by the Bradford assay, with bovine serum albumin as standard.^51 Western blot analyses of cellular proteins were performed using 50 μg of protein. For Western blot analysis of secreted proteins, equal numbers of cells were seeded, serum-free medium was added to the cells, and incubation continued for 3 h. The medium was collected, and an aliquot was analyzed directly by Western blot analysis. Use of serum free medium in collecting secreted proteins is essential because fetal calf serum contains substantial amounts of collagen and fibronectin.^15,31 For immunostaining, cells were seeded onto glass coverslips. […]
To assess the role of nonmuscle myosin in collagen synthesis, we disrupted nonmuscle myosin filaments in two different cell types: primary human lung fibroblasts and primary scleroderma skin fibroblasts. […] To assess the effect of ML-7 on collagen protein synthesis and secretion, we analyzed the levels of collagen α1(I) and α2(I) polypeptides in the intracellularly space and in the medium using Western blot analysis and chain-specific antibodies.^12,15,31-33 ML-7 treatment profoundly affected the secretion of type I collagen, but the effect differed in the two types of primary fibroblasts. […]

O=S(=O)(c1cccc2c(I)cccc12)N1CCCNCC1 [ML-7]
total level of myosin IIB [1]: remained unchanged | calnexin immunostaining (organization of the ER) [2]: did not show a difference

— patent publication US8697385B1, “Protein controlling synthesis of collagen and associated methods” (Florida State University Research Foundation, Inc., priority 2009, dated 2014)
